Source: patent US5476866A, “Isoxazoles” (Roussel Uclaf, priority 1993, dated 1995)

Assays:
[1] = Kinetic data: plasma concentrations after oral administration to mice; format: in vivo; conditions: 30 mg/kg oral; for half-life: mouse, plasma concentrations monitored for 72 hours, read-out: metabolic half-life (converted); for metabolic half-life relative to the known compound: fraction of known compound's half-life (approximately 21.4 hours)
Procedure: A comparison was made between a known compound, namely 5 -cyclopropyl-N-(4-trifluoromethylphenyl)-isoxazole-4-carboxamide and the compounds of the present invention, namely compounds of Examples 5 and 6 above. The compounds were administered orally to mice at doses of 30 mg/kg and plasma concentrations were monitored for 72 hours.

Adjuvant arthritis = Adjuvant arthritis (Test 4); format: in vivo, male rats of a Wistar-Lewis strain; conditions: 25 mg/kg p.o. once daily for 12 days from day of immunization; vs untreated control
Procedure: Adjuvant arthritis (Test 4) The investigations were carried out by the method of Pearson (Arthrit. Rheum., Vol. 2, (1959) p. 44). The experimental animals used were male rats of a Wistar-Lewis strain having a body weight between 130 to 200 g. The compounds to be tested were administered orally once daily for 12 days, starting on the day of immunization. The animals of a control group received only the vehicle. Each preparation and control group comprised 6 animals. The criterion used to determine activity was the percentage reduction in the increase in paw volume compared to that of the untreated control group.

[2] = tested on: Carrageenan rat paw oedema; experiment: Carrageenan rat paw oedema (Test 1); format: in vivo, male rats CFHB; conditions: 50 mg/kg p.o.; 1 h before carrageenan; oedema assessed 3 h later
Procedure: Carrageenan rat paw oedema (Test 1)
One hour after the oral administration of the test compounds or control vehicle to groups of 6 to 12 male rats CFHB with a weight range of 160-180 g, 1 mg of carrageenan dissolved in 0.2 ml of saline was injected into the right hind foot pad. Contralateral paws received control saline injections and paw oedema responses were assessed three hours later.

[3] = tested on: Delayed-type hypersensitivity rat paw oedema; experiment: Delayed-type hypersensitivity rat paw oedema (Test 3); format: in vivo, male rats CFHB; conditions: daily days 4-6, twice day 7, 24 h after antigen challenge
[4] = tested on: Delayed-type hypersensitivity mouse paw oedema; experiment: Delayed-type hypersensitivity mouse paw oedema (DTH-M) (Test 2); format: in vivo, male mice CD-1; conditions: daily days 4-6, twice day 7, 24 h after MBSA challenge
Procedure: Delayed-type hypersensitivity mouse paw oedema (DTH-M) (Test 2)
Groups of 8 to 10 male mice CD-1 with a weight range of 25-30 g were sensitized by the subcutaneous injection of 1 mg of methylated bovine serum albumin (MBSA) in 0.2 ml volumes of saline/Freund's complete adjuvant (FCA) emulsion. Negative control groups received injections of saline/FCA emulsion. DTH paw oedema responses were assessed twenty-four hours after the right hind foot pad challenge with 0.1 mg of MBSA in 0.05 ml volumes of saline on day seven after sensitization. Contralateral paws received control saline injections. The test compounds or control vehicles were orally administered daily on days four, five, six and twice on day seven, one hour before and six hours after MBSA challenge.

[5] = tested on: Reverse Passive Arthus Reaction; experiment: Reverse Passive Arthus Reaction (Test 5); format: in vivo, male or female Wistar rats; conditions: paw volume at 4 h
Procedure: Reverse Passive Arthus Reaction (Test 5)
One hour before challenge, test compounds were administered orally to male or female Wistar rats weighing 120-200 g. After this pre-treatment period, the reaction was induced by a subplantar injection of goat anti-rat serum in the right hind paw. The left hind paw, which served as a control, was injected with saline alone. Paw volumes were determined immediately and four hours after antibody challenge. Doses are given in units of mg/kg p.o.

[6] = 50 mg/kg p.o. 1 h before challenge
[7] = 100 mg/kg p.o. 1 h before challenge

half-life [1] [h] | metabolic half-life relative to the known compound [1] | Structure (SMILES) | Test 4 % inhibition (percentage reduction in the increase in paw volume) (Adjuvant arthritis) [%] | Test 1 % inhibition [2] [%] | Test 3 % inhibition ([3]; 50 mg/kg p.o.) [%] | Test 2 % inhibition ([4]; 100 mg/kg p.o.) [%] | Test 5 % inhibition [5, 6] [%] | Test 5 % inhibition [5, 7] [%] | Test 3 % inhibition ([3]; 10 mg/kg p.o.) [%] | Test 2 % inhibition ([4]; 30 mg/kg p.o.) [%]
~21.4 | – | O=C(Nc1ccc(C(F)(F)F)cc1)c1cnoc1C1CC1 [5-cyclopropyl-N-(4-trifluoromethylphenyl)-isoxazole-4-carboxamide, reference compound] | – | – | – | – | – | – | – | –
– | – | Cc1cc(NC(=O)c2cnoc2C2CC2)ccc1Br [Example 1, 5-cyclopropyl-N-(4-bromo-3-methylphenyl)-isoxazole-4-carboxamide] | -16 | 12 | 24 | 41 | 42 | 26 | – | –
– | – | O=C(Nc1ccc([N+](=O)[O-])cc1)c1cnoc1C1CC1 [Example 2, 5-cyclopropyl-N-(4-nitrophenyl)-isoxazole-4-carboxamide] | 92 | 0 | 52 | 19 | -9 | 27 | – | –
– | – | N#Cc1ccc(NC(=O)c2cnoc2C2CC2)cc1 [Example 3, 5-cyclopropyl-N-(4-cyanophenyl)-isoxazole-4-carboxamide] | 90 | 43 | – | – | 41 | 36 | 60 | 43
– | – | Cc1cc(NC(=O)c2cnoc2C2CC2)ccc1Cl [Example 4, 5-cyclopropyl-N-(4-chloro-3-methylphenyl)-isoxazole-4-carboxamide] | 22 | 11 | 32 | 64 | 17 | 28 | – | –
7.1 | about one third | Cc1cc(NC(=O)c2cnoc2C2CC2)ccc1C#N [Example 5, 5-cyclopropyl-N-(4-cyano-3-methylphenyl)-isoxazole-4-carboxamide] | 88 | 18 | – | – | 23 | 34 | 62 | 41
8.2 | about one third | Cc1cc(NC(=O)c2cnoc2C2CC2)ccc1C(F)(F)F [Example 6, 5-cyclopropyl-N-(3-methyl-4-trifluoromethylphenyl)-isoxazole-4-carboxamide] | 42 | 12 | 57 | 34 | 24 | 38 | – | –
